≈ marks a conversion by molar mass, not a printed value. Like-named read-outs stand apart in the source and are kept apart here.
What was measured:
[1] = biological target: T1, hA3AR (Homo sapiens, UniProt P0DMS8); settings: modulator 0.1 μM; cited from earlier work
T1 sequence (P0DMS8 1-318): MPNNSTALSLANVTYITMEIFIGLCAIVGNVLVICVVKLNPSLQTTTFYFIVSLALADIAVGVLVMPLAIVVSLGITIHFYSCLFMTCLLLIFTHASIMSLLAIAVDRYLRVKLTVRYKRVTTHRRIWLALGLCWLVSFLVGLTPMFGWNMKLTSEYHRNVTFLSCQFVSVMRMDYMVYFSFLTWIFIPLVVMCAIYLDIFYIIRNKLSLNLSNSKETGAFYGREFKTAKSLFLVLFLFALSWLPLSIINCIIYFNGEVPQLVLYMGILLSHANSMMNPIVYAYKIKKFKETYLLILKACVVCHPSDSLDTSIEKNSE

[2] = biological target: T1, hA3AR; settings: for enhancement of agonist efficacy at 0.1 μM: modulator 0.1 μM; for effect on agonist 52 potency: modulator 1 μM (30–34: 0.1 and 1.0 μM), compared to control
[3] = biological target: T1, hA3AR; settings: modulator 10 μM; 100 μM 51 added; control 26%
[4] = biological target: T2, hA2B AR (Homo sapiens, UniProt P29275); assay: Orthosteric antagonist radioligand binding; settings: concentrations as high as 10 μM
T2 sequence (P29275 1-332): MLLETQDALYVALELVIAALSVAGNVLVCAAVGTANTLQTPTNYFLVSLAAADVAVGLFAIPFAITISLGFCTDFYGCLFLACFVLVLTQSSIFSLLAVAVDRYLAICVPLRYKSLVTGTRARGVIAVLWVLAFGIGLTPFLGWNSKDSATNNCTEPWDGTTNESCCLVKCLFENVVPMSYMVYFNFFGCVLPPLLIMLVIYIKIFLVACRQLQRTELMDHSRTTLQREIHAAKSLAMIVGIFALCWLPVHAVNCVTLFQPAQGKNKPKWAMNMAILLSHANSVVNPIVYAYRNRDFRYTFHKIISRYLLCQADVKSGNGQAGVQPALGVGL

[5] = biological target: hA2A AR (Homo sapiens, UniProt P29274); assay: Orthosteric antagonist radioligand binding; settings: concentrations as high as 10 μM
[6] = biological target: T3, hA1 AR (Homo sapiens, UniProt P30542); assay: Orthosteric antagonist radioligand binding; settings: concentrations as high as 10 μM
T3 sequence (P30542 1-326): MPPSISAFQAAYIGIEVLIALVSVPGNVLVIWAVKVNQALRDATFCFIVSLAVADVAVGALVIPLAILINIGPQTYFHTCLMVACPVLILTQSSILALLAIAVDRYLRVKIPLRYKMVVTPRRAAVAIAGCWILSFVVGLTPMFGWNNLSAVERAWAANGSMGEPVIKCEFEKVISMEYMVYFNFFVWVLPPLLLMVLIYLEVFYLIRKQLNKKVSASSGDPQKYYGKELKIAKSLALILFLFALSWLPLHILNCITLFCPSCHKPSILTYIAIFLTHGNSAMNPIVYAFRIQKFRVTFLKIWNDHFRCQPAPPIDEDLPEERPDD

[7] = test system: Caco-2 cells; assay: Caco-2 cell permeability assay; type: in vitro ADME, human
[8] = Pharmacokinetics in fasted Wistar rats; type: in vivo; settings: rat
[9] = pION aqueous solubility pH 7.4; type: physicochemical; settings: pION buffer
[10] = biological target: CYP2C9 (Homo sapiens, UniProt P11712); assay: CYP inhibition
[11] = Plasma protein binding, human; settings: pH 7.4

hA2A AR, sequence (P29274 whole entry): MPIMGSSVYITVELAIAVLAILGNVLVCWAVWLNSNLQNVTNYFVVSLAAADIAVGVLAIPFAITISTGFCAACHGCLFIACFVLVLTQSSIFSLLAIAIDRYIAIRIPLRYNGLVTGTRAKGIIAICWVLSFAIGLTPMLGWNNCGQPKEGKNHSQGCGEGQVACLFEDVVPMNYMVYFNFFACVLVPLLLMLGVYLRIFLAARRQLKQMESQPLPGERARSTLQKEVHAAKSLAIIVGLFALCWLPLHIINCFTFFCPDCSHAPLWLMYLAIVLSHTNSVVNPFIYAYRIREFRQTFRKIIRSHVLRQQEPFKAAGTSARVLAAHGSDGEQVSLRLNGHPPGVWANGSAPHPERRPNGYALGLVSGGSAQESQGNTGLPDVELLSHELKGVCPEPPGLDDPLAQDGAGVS
CYP2C9, sequence (P11712 whole entry): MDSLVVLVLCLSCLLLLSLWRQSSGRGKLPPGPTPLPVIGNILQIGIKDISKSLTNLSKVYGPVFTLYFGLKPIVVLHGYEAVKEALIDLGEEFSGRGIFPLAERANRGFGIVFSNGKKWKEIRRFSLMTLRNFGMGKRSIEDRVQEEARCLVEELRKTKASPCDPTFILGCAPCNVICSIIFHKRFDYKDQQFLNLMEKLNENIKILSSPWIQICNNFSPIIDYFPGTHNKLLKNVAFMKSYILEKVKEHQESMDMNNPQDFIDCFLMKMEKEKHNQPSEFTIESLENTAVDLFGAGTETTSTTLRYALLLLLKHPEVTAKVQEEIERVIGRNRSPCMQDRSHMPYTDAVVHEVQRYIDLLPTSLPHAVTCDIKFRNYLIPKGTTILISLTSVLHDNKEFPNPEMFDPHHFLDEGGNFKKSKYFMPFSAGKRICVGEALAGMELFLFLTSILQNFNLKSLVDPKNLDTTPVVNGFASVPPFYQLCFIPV

Clc1ccc(Nc2nc3ccccc3c3nc(C4CCCCC4)[nH]c23)cc1Cl [Compound 7, N-(3,4-dichloro-phenyl)-2-cyclohexyl-1H-imidazo[4,5-c]quinolin-4-amine]
enhancement of agonist efficacy at 0.1 μM [1]: significantly enhanced agonist efficacy

Clc1ccc(Nc2nc3ccccc3c3[nH]c(C4CCCCCC4)nc23)cc1Cl [Compound 8]
enhancement of agonist efficacy at 0.1 μM [1]: significantly enhanced agonist efficacy

Clc1ccc(Nc2nc3ccccc3c3[nH]c(C45CC6CC(CC(C6)C4)C5)nc23)cc1Cl [Compound 12b]
enhancement of agonist efficacy at 0.1 μM [2]: significantly enhanced agonist efficacy | fold increase of agonist efficacy ([2]; modulator 1 μM): approximately 2 fold | fold improvement of agonist potency ([2]; modulator 1.0 μM, P = 0.058): ~4 fold

FC(F)(F)CCC(CCC(F)(F)F)c1nc2c(Nc3ccc(Cl)c(Cl)c3)nc3ccccc3c2[nH]1 [Compound 15, 2-(1,1,1,7,7,7-Hexafluoroheptan-4-yl)-N-(3,4-dichlorophenyl)-1H-imidazo[4,5-c]quinolin-4-amine]
radioligand [125I]50 remaining bound 60 min after initiation of dissociation [3]: did not slow agonist dissociation | effect on agonist 52 potency [2]: did not influence agonist potency

FC(F)(F)[C@H]1CC[C@H](c2nc3c(Nc4ccc(Cl)c(Cl)c4)nc4ccccc4c3[nH]2)CC1 [Compound 16, 2-(4-(Trifluoromethyl)cyclohexyl)-N-(3,4-dichlorophenyl)-1H-imidazo[4,5-c]quinolin-4-amine]
enhancement of agonist efficacy at 0.1 μM [2]: significantly enhanced agonist efficacy | effect on agonist 52 potency [2]: did not influence agonist potency

Clc1ccc(Nc2nc3ccccc3c3[nH]c(C4CC4)nc23)cc1Cl [Compound 17, 2-(Cyclopropyl)-N-(3,4-dichlorophenyl)-1H-imidazo[4,5-c]quinolin-4-amine]
inhibition of orthosteric antagonist binding at hA2B AR [4]: did not inhibit orthosteric antagonist binding | inhibition of orthosteric antagonist binding at hA2A AR [5]: did not inhibit orthosteric antagonist binding | inhibition of orthosteric antagonist binding at hA1 AR [6]: did not inhibit orthosteric antagonist binding

Clc1ccc(Nc2nc3ccccc3c3[nH]c(C4CCC=CCC4)nc23)cc1Cl [Compound 18, 2-(Cyclohept-4-en-1-yl)-N-(3,4-dichlorophenyl)-1H-imidazo[4,5-c]quinolin-4-amine]
Caco-2 permeability (Papp) apical to basolateral (A to B) ([7]; 10 μM): no measurable permeability | Caco-2 permeability (Papp) basolateral to apical (B to A) ([7]; 10 μM): no measurable permeability | Caco-2 permeability classification ([7]; A-B and B-A): low A-B and B-A permeability | Cmax ([8]; male, Wistar (RccHan:WIST), plasma, po, 10 mg/kg): 4.2 µM | clearance rate from plasma ([8]; 1 mg/kg p.o.): 7.45 mL/min/kg | clearance rate from plasma ([8]; 3 mg/kg p.o.): 26.33 mL/min/kg | clearance rate from plasma ([8]; 10 mg/kg p.o.): 16.2 mL/min/kg | solubility at 18 h [9]: 0.92 µM (≈ 0.389 µg/mL)

Clc1ccc(Nc2nc3ccccc3c3[nH]c(C45CCC(CC4)C5)nc23)cc1Cl [Compound 25, 2-(Bicyclo[2.2.1]heptan-1-yl)-N-(3,4-dichlorophenyl)-1H-imidazo[4,5-c]quinolin-4-amine]
fold decrease in agonist potency compared to control ([2]; modulator 1 μM, P = 0.0257): 4 fold

Clc1ccc(Nc2nc3ccccc3c3[nH]c(C45CCCC(CCC4)C5)nc23)cc1Cl [Compound 26, 2-(Bicyclo[3.3.1]nonan-1-yl)-N-(3,4-dichlorophenyl)-1H-imidazo[4,5-c]quinolin-4-amine]
effect on agonist 52 potency [2]: neither 12b nor 26 significantly improved agonist potency

Clc1ccc(Nc2nc3ccccc3c3[nH]c([C@@H]4C[C@@H]5CCC[C@@H](C5)C4)nc23)cc1Cl [Compound 27, 2-((1R,3s,5S)-Bicyclo[3.3.1]nonan-3-yl)-N-(3,4-dichlorophenyl)-1H-imidazo[4,5-c]quinolin-4-amine]
enhancement of agonist efficacy at 0.1 μM [2]: significantly enhanced agonist efficacy

Clc1ccc(Nc2nc3ccccc3c3[nH]c([C@@H]4CC[C@@H]5C[C@@H]5CC4)nc23)cc1Cl [Compound 28, 2-((1R,4r,7S)-bicyclo[5.1.0]octan-4-yl)-N-(3,4-dichlorophenyl)-1H-imidazo[4,5-c]quinolin-4-amine]
radioligand [125I]50 remaining bound 60 min after initiation of dissociation [3]: slowed agonist radioligand dissociation | fold increase of agonist efficacy ([2]; modulator 1 μM): approximately 2 fold

Clc1ccc(Nc2nc3ccccc3c3[nH]c(C4CC5C=CC4CC5)nc23)cc1Cl [Compound 29, 2-((1R,2R,4R)- and (1S,2S,4S))-Bicyclo[2.2.2]oct-5-en-2-yl)-N-(3,4-dichlorophenyl)-1H-imidazo[4,5-c]quinolin-4-amine]
effect on agonist EC50 over modulator concentrations ([2]; concentration-dependent): significantly decreasing the potency in a concentration-dependent manner | effect on agonist 52 potency [2]: did not influence agonist potency

Clc1ccc(COC(Cn2ccnc2)c2ccc(Cl)cc2Cl)c(Cl)c1 (centres unmarked) [Miconazole]
IC50 [10]: 380 nM

CC(=O)CC(c1ccccc1)c1c(O)c2ccccc2oc1=O (centres unmarked) [Warfarin]
fraction unbound at 5 h, 10 μM [11]: 0.037

From PMC10354740 (Journal of medicinal chemistry, 2022)
